Earlier results as cited in patent US8236821B2, “Substituted N-phenyl-5-phenyl-pyrazolin-3-yl amides as cannabinoid receptor antagonists/inverse agonists useful for treating obesity” (Jenrin Discovery, Inc., priority 2008, dated 2012).

Details: type 2 diabetes patients not treated with other anti-diabetic medications; six months of treatment; baseline value 7.9; placebo reduction 0.3%

Cc1c(C(=O)NN2CCCCC2)nn(-c2ccc(Cl)cc2Cl)c1-c1ccc(Cl)cc1 [rimonabant]
HbA1c levels lowered: 0.8%
